According to ChEMBL document CHEMBL6078646, “Target Ligand Separation and Identification of Isoforsythiaside as a Histone Lysine-Specific Demethylase 1 Covalent Inhibitor Against Breast Cancer Metastasis” (J Med Chem, 2024):
Active and inactive are the calls of the source.

Legend:
[1] = Half-life in male Sprague-Dawley rat at 10 mg/kg, ip measured at 0 to 1440 mins by LC-MS/MS analysis; format: ADME, organism-based; settings: in vivo, time 0-1440 min
[2] = Toxicity in female Balb/c mouse assessed as effect on WBC level at 50 mg/kg, ip administered every other day for 7 times; format: organism-based; settings: in vivo
[3] = Toxicity in female Balb/c mouse assessed as effect on RBC level at 50 mg/kg, ip administered every other day for 7 times; format: organism-based; settings: in vivo
[4] = Toxicity in female Balb/c mouse assessed as effect on BUN level at 50 mg/kg, ip administered every other day for 7 times; format: organism-based; settings: in vivo
[5] = Toxicity in female Balb/c mouse assessed as effect on ALT level at 50 mg/kg, ip administered every other day for 7 times; format: organism-based; settings: in vivo
[6] = Toxicity in female Balb/c mouse assessed as effect on AST level at 50 mg/kg, ip administered every other day for 7 times; format: organism-based; settings: in vivo
[7] = Toxicity in female Balb/c mouse assessed as effect on creatine kinase level at 50 mg/kg, ip administered every other day for 7 times; format: organism-based; settings: in vivo
[8] = Toxicity in female Balb/c mouse assessed as histological changes in kidney at 50 mg/kg, ip administered every other day for 7 times by H and E staining based analysis; format: organism-based; settings: in vivo
[9] = tested on: MDA-MB-231; assay: Cytotoxicity against human MDA-MB-231 cells assessed as cell viability at 0 to 100 uM incubated for 24 hrs by MTT assay; format: functional; settings: dose 0-100 µM
[10] = tested on: MCF7; assay: Cytotoxicity against human MCF7 cells assessed as cell viability at 0 to 100 uM incubated for 24 hrs by MTT assay; format: functional; settings: dose 0-100 µM
[11] = Cytotoxicity against human MCF-10A cells assessed as cell viability at 0 to 100 uM incubated for 24 hrs by MTT assay; format: toxicity, cell-based; settings: dose 0-100 µM, read-out: Activity
[12] = tested on: MDA-MB-231; assay: Inhibition of cell invasion in human MDA-MB-231 cells assessed as reduction in number of invasive cells at 4 to 32 uM incubated for 24 hrs by phase contrast microscopy Transwell assay; format: functional, cell-based; settings: dose 4-32 µM
[13] = tested on: MDA-MB-231; assay: Inhibition of epithelial to mesenchymal transition in human MDA-MB-231 cells assessed as upregulation of E-cadherin protein expression by Western blotting analysis; format: functional, cell-based; settings: dose 0-32 µM
[14] = tested on: MDA-MB-231; assay: Antimetastatic activity against human MDA-MB-231 cells expressing luciferase xenografted in female Balb/c nude mouse assessed as reduction in fluorescence intensity in lungs at 12 mg/kg, ip administered every 3 days and measured on day 15 by bioluminescence imaging analysis relative to control; format: functional; set-up: scale not given: the % may be the effect or the level left; settings: time 15 day
[15] = tested on: MDA-MB-231; assay: Antimetastatic activity against human MDA-MB-231 cells expressing luciferase xenografted in female Balb/c nude mouse assessed as reduction in fluorescence intensity in lungs at 25 mg/kg, ip administered every 3 days and measured on day 15 by bioluminescence imaging analysis relative to control; format: functional; set-up: scale not given: the % may be the effect or the level left; settings: time 15 day
[16] = tested on: MDA-MB-231; assay: Antimetastatic activity against human MDA-MB-231 cells expressing luciferase xenografted in female Balb/c nude mouse assessed as reduction in fluorescence intensity in lungs at 50 mg/kg, ip administered every 3 days and measured on day 15 by bioluminescence imaging analysis relative to control; format: functional; set-up: scale not given: the % may be the effect or the level left; settings: time 15 day
[17] = tested on: MDA-MB-231; assay: (§1) Antimetastatic activity against human MDA-MB-231 cells expressing luciferase xenografted in female Balb/c nude mouse assessed as reduction in number of metastatic nodules in the lung at 12 mg/kg, ip administered every 3 days and measured after 30 days by H and E staining based histopathological analysis relative to control; format: functional; set-up: scale not given: the % may be the effect or the level left; settings: time 30 day
[18] = tested on: MDA-MB-231; assay: as §1, with “50” for “12”; format: functional; set-up: scale not given: the % may be the effect or the level left; settings: time 30 day
[19] = tested on: MDA-MB-231; assay: Antimetastatic activity against human MDA-MB-231-Luc cells xenografted in female Balb/c nude mouse assessed as smaller metastatic nodules in lung at 12 to 50 mg/kg, ip administered every 3 days and measured after 30 days by H and E staining based analysis; format: functional, organism-based; settings: dose 12-50 mg/kg, time 30.0 day
[20] = Toxicity in female Balb/c nude mouse xenografted with human MDA-MB-231 cells expressing luciferase assessed as abnormalities liver at 12 to 50 mg/kg, ip administered every 3 days and measured after 30 days by H and E staining based analysis; format: organism-based; settings: in vivo, 720 h, dose 12-50 mg/kg, time 30 day
[21] = target: T1, Lysine-specific histone demethylase 1A (Homo sapiens, UniProt O60341); assay: Inhibition of LSD1 in human MDA-MB-231 cells assessed as increase in H3K4me1 accumulation by Western blotting analysis; format: cell-based; settings: dose 0-32 µM
[22] = tested on: MDA-MB-231; assay: Effect on CD86 protein expression in LSD1 knockout human MDA-MB-231 cells at 16 uM by Western blot analysis; format: functional, cell-based
[23] = tested on: MDA-MB-231; assay: Effect on E-cadherin protein expression in LSD1 knockout human MDA-MB-231 cells at 16 uM by Western blot analysis; format: functional, cell-based
[24] = tested on: MDA-MB-231; assay: Effect on N-cadherin protein expression in LSD1 knockout human MDA-MB-231 cells at 16 uM by Western blot analysis; format: functional, cell-based
[25] = tested on: MDA-MB-231; assay: Inhibition of cell migration in LSD1 knockout human MDA-MB-231 cells at 16 uM incubated for 24 hrs by phase-contrast microscopy based wound healing assay; format: functional
[26] = tested on: MDA-MB-231; assay: Antimetastatic activity against LSD1 knockout human MDA-MB-231 cells xenografted in wild type zebrafish yolk sac assessed as inhibition of cell migration at 12.5 mg/L incubated for 3 days by fluorescence microscopic analysis; format: functional, cell-based; settings: time 3.0 day
[27] = tested on: MDA-MB-231; assay: Antimetastatic activity against LSD1 knockout human MDA-MB-231 cells xenografted in mouse model assessed as reduction in number of metastatic nodules in the lung measured after 27 days; format: functional, cell-based; settings: time 27.0 day
[28] = tested on: MDA-MB-231; assay: Antimetastatic activity against LSD1 knockout human MDA-MB-231 cells xenografted in mouse model assessed as reduction in metastatic nodules in lung measured after 27 days by H and E staining based analysis; format: functional, cell-based; settings: time 27.0 day
[29] = species: Homo sapiens; assay: Inhibition of recombinant LSD1 Ser817A mutant (unknown origin)
[30] = species: Homo sapiens; assay: Binding affinity to recombinant LSD1 Ser817A mutant (unknown origin) by MST assay
[31] = species: Homo sapiens; assay: Effect on LSD1/CoREST/HDAC1/HDAC2 (unknown origin) complex by coimmunoprecipitation analysis
[32] = tested on: MDA-MB-231; assay: Effect on LSD1 nuclear localization in human MDA-MB-231 cells transfected with LSD1 fluorescence antibody by fluorescence based analysis; format: functional, cell-based
[33] = tested on: MDA-MB-231; assay: Induction of LSD1 degradation in human MDA-MB-231 cells incubated for 12 hrs by Western blotting analysis; format: cell-based
[34] = target: T1, Lysine-specific histone demethylase 1A; assay: Non-competitive inhibition of LSD1 (unknown origin) using H3K4me2 as substrate by Lineweaver-Burk plot analysis
[35] = target: T1, Lysine-specific histone demethylase 1A; assay: Binding affinity to recombinant LSD1 (unknown origin) at S817 residue by LC-MS/MS analysis
[36] = tested on: MDA-MB-231; assay: Induction of LSD1 degradation in human MDA-MB-231 cells at 4 to 32 uM in presence of MG132 by Western blot analysis; format: cell-based; settings: dose 4-32 µM
[37] = tested on: MDA-MB-231; assay: Upregulation of RBMS3 promoter level in human MDA-MB-231 cells by chromatin immunoprecipitation assay; format: functional, cell-based

C[C@@H]1O[C@H](OC[C@H]2O[C@@H](OCCc3ccc(O)c(O)c3)[C@H](O)[C@@H](OC(=O)/C=C/c3ccc(O)c(O)c3)[C@@H]2O)[C@H](O)[C@H](O)[C@H]1O
Non-toxic: Activity [2] | Activity [3] | Activity [4] | Activity [5] | Activity [6] | Activity [7] | Activity [8] | Activity [20]
46.4%: Activity [15]
34.8 min: half-life [1]
inactive: Activity [22] | Activity [23] | Activity [24] | inhibition [25] Active; No Significant Difference With Lsd1 Knockout Control Group | Activity [26] Active; No Significant Difference With Lsd1 Knockout Control Group | Activity [28] Active; No Significant Difference Compared To Lsd1 Knockout Control Group | inhibition [29] | Activity [30] | Activity [31] | Activity [32] | Activity [36]
32.9%: Activity [14]
52.5%: Activity [18]
7.1%: Activity [17]
73.3%: Activity [16]
>90%: Activity [9] | Activity [10]
> 90%: viability at 24 h, up to 100 µM [11]
active: inhibition [12] | inhibition [13] Dose-dependent-effect | Activity [19] | inhibition [21] Dose-dependent-effect | Activity [27] | Activity [33] | inhibition [34] | Activity [35] | Activity [37]
